Consider 22 molecules from patent US9365576B2, “Pyrrolopyrrolidinone compounds” (Novartis AG, priority 2012, dated 2016).

The structures appear in SMILES notation.

For this assay, the target named is human MDM2 protein (amino acids 2-188) (Homo sapiens (Human), UniProt Q00987). Description: TR-FRET assay, p53-MDM2 Assay 2 (modified). The format is binding. The following applies: TR-FRET; 0.1 nM MDM2, 0.1 nM Europium labeled streptavidin, Tecan genios Pro reader; read-out: IC50 p53-MDM2 Assay 2. Here is the method: The inhibition of p53-MDM2 and p53-MDM4 interactions is measured by time resolved fluorescence energy transfer (TR-FRET). Fluorescence energy transfer (or Foerster resonance energy transfer) describes an energy transfer between donor and acceptor fluorescent molecules. For this assay, human MDM2 protein (amino acids 2-188) and human MDM4 protein (amino acids 2-185), tagged with a C-terminal biotin moiety, are used in combination with a Europium labeled streptavidin (Perkin Elmer, Inc., Waltham, Mass., USA) serving as the donor fluorophore. The p53 derived, Cy5 labeled peptide Cy5-[…] (p53 aa18-26) is the energy acceptor. Upon excitation of the donor molecule at 340 nm, binding interaction between MDM2 or MDM4 and the p53 peptide induces energy transfer and enhanced response at the acceptor emission wavelength at 665 nm. […] The ratiometric FRET assay readout is calculated from the raw data of the two distinct fluorescence signals measured in time resolved mode (fluorescence 665 nm/fluorescence 620 nm×1000).
human MDM2 protein (amino acids 2-188), sequence (Q00987 2-188): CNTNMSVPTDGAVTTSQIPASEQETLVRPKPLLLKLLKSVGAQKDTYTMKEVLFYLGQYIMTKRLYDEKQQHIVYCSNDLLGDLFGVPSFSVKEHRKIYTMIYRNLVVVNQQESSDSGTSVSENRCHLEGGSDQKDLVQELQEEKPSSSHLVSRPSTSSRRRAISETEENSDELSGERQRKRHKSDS
After addition of 1.25 nM MDM2-biotinylated or 2.5 nM MDM4-biotinylated (internal preparations), and 0.625 nM Europium labeled streptavidin (Perkin Elmer), the solution is pre-incubated for 15 minutes at room temperature, then 10 nM Cy5-p53 peptide (internal preparation) is added before an incubation at room temperature for 15 minutes prior to reading the plate. For measurement of samples, a Victor II microplate reader (Perkin Elmer) is used with the following settings: Excitation 340 nm, Emission Donor 620 nm and Emission Acceptor 665 nm. IC50 values are calculated by curve fitting using XLfit. If not specified, reagents are purchased from Sigma-Aldrich Chemie GmBH, Buchs, Switzerland.
As to `COc1nc(N(C)C)ncc1-c1cc2c(n1C(C)C)C(c1ccc(Cl)cc1)N(c1cc(Cl)c(=O)n(C)c1)C2=O` (stereo not shown) [Example 52, 5-(5-Chloro-1-methyl-6-oxo-1,6-dihydro-pyridin-3-yl)-6-(4-chloro-phenyl)-2-(2-dimethylamino-4-methoxy-pyrimidin-5-yl)-1-isopropyl-5,6-dihydro-1H-pyrrolo[3,4-b]pyrrol-4-one], the IC50 came to 0.137 nM. For `COc1nc(N(C)C)ncc1-c1cc2c(n1C(C)C)[C@@H](c1ccc(C#N)cc1)N(c1ccc(F)c(Cl)c1)C2=O` [Example 170, 4-[(R)-5-(3-Chloro-4-fluoro-phenyl)-2-(2-dimethylamino-4-methoxy-pyrimidin-5-yl)-1-isopropyl-4-oxo-1,4,5,6-tetrahydro-pyrrolo[3,4-b]pyrrol-6-yl]-benzonitrile] the value was 31.3 nM; for `COc1ncc(-c2cc3c(n2C(C)C)C(c2ccc(C#N)c(F)c2)N(c2cc(Cl)c(=O)n(C)c2)C3=O)c(OC)n1` (stereo not shown) [Example 195, 4-[5-(5-Chloro-1-methyl-6-oxo-1,6-dihydro-pyridin-3-yl)-2-(2,4-dimethoxy-pyrimidin-5-yl)-1-isopropyl-4-oxo-1,4,5,6-tetrahydro-pyrrolo[3,4-b]pyrrol-6-yl]-2-fluoro-benzonitrile], 0.252 nM; for `COc1ncc(-c2cc3c(n2C(C)C)[C@H](c2ccc(C#N)cc2)N(c2cc(Cl)cn(C)c2=O)C3=O)c(OC)n1` [Example 215, 4-[(S)-5-(5-Chloro-1-methyl-2-oxo-1,2-dihydro-pyridin-3-yl)-2-(2,4-dimethoxy-Pyrimidin-5-yl)-1-isopropyl-4-oxo-1,4,5,6-tetrahydro-pyrrolo[3,4-b]pyrrol-6-yl]-benzonitrile], 0.527 nM. For `COc1ncc(-c2cc3c(n2C(C)C)C(c2ccc(Cl)cc2)N(c2cn(C)c(=O)cc2C)C3=O)c(OC)n1` (stereo not shown) [Example 111, 6-(4-Chloro-phenyl)-2-(2,4-dimethoxy-pyrimidin-5-yl)-5-(1,4-dimethyl-6-oxo-1,6-dihydro-pyridin-3-yl)-1-isopropyl-5,6-dihydro-1H-pyrrolo[3,4-b]pyrrol-4-one] the value was 1.84 nM. The same measure for `COc1nc(N)ncc1-c1cc2c(n1C(C)C)[C@H](c1ccc(C#N)cc1)N(c1cccc(Cl)c1F)C2=O` [Example 154, 4-[(S)-2-(2-Amino-4-methoxy-pyrimidin-5-yl)-5-(3-chloro-2-fluoro-phenyl)-1-isopropyl-4-oxo-1,4,5,6-tetrahydro-pyrrolo[3,4-b]pyrrol-6-yl]-benzonitrile]: 0.328 nM; for `COc1ccc(C(=O)N(C)C)cc1-c1cc2c(n1C(C)C)C(c1ccc(Cl)cc1)N(c1cc(Cl)ccc1C)C2=O` (stereo not shown) [Example 15, 3-[5-(5-Chloro-2-methyl-phenyl)-6-(4-chloro-phenyl)-1-isopropyl-4-oxo-1,4,5,6-tetrahydro-pyrrolo[3,4-b]pyrrol-2-yl]-4-methoxy-N,N-dimethyl-benzamide]: 0.133 nM. For `CNC(=O)c1ccc(OC)c(-c2cc3c(n2C(C)C)[C@H](c2ccc(Cl)cc2)N(c2cc(Cl)ccc2C)C3=O)c1` [Example 18, 3-[(S)-5-(5-Chloro-2-methyl-phenyl)-6-(4-chloro-phenyl)-1-isopropyl-4-oxo-1,4,5,6-tetrahydro-pyrrolo[3,4-b]pyrrol-2-yl]-4-methoxy-N-methyl-benzamide], the half-inhibitory concentration (IC50) was 0.095 nM. `COc1ncccc1-c1cc2c(n1C(C)C)C(c1ccc(Cl)cc1C)N(c1cccc(Cl)c1F)C2=O` (stereo not shown) [Example 5, 5-(3-Chloro-2-fluoro-phenyl)-6-(4-chloro-2-methyl-phenyl)-1-isopropyl-2-(2-methoxy-pyridin-3-yl)-5,6-dihydro-1H-pyrrolo[3,4-b]pyrrol-4-one]: the IC50 came out at 1.7 nM.

In the case of `COc1ncc(-c2cc3c(n2C(C)C)C(c2ccc(Cl)cc2)N(c2cc(Cl)cn(C)c2=O)C3=O)c(OC)n1` (stereo not shown) [Example 70, 5-(5-Chloro-1-methyl-2-oxo-1,2-dihydro-pyridin-3-yl)-6-(4-chloro-phenyl)-2-(2,4-dimethoxy-pyrimidin-5-yl)-1-isopropyl-5,6-dihydro-1H-pyrrolo[3,4-b]pyrrol-4-one], the IC50 turned out to be 0.235 nM. With `COc1ccc(C(=O)N2CCOCC2)cc1-c1cc2c(n1C(C)C)C(c1ccc(Cl)cc1)N(c1cc(Cl)ccc1C)C2=O` (stereo not shown) [Example 28, 5-(5-Chloro-2-methyl-phenyl)-6-(4-chloro-phenyl)-1-isopropyl-2-[2-methoxy-5-(morpholine-4-carbonyl)-phenyl]-5,6-dihydro-1H-pyrrolo[3,4-b]pyrrol-4-one], the IC50 was found to be 0.106 nM. Regarding `COc1nc(N(C)C)ncc1-c1cc2c(n1C(C)C)[C@H](c1ccc(C#N)cc1)N(C1CCOCC1)C2=O` [Example 190, 4-[(S)-2-(2-Dimethylamino-4-methoxy-pyrimidin-5-yl)-1-isopropyl-4-oxo-5-(tetrahydro-pyran-4-yl)-1,4,5,6-tetrahydro-pyrrolo[3,4-b]pyrrol-6-yl]-benzonitrile], the IC50 was determined as 0.631 nM. For `COc1ncc(-c2cc3c(n2C(C)C)C(c2ccc(Cl)cc2)N(C2CCOCC2)C3=O)c(OC)n1` (stereo not shown) [Example 76, 6-(4-Chloro-phenyl)-2-(2,4-dimethoxy-pyrimidin-5-yl)-1-isopropyl-5-(tetrahydro-pyran-4-yl)-5,6-dihydro-1H-pyrrolo[3,4-b]pyrrol-4-one] the value was 1.64 nM; for `CNC(=O)c1ccc(OC)c(-c2cc3c(n2C(C)C)C(c2ccc(Cl)cc2)N(c2cc(Cl)ccc2C#N)C3=O)c1` (stereo not shown) [Example 97, 3-[5-(5-Chloro-2-cyano-phenyl)-6-(4-chloro-phenyl)-1-isopropyl-4-oxo-1,4,5,6-tetrahydro-pyrrolo[3,4-b]pyrrol-2-yl]-4-methoxy-N-methyl-benzamide], 0.378 nM; for `CNc1ncc(-c2cc3c(n2C(C)C)C(c2ccc(Cl)cc2C)N(c2cc(Cl)c(=O)n(C)c2)C3=O)c(OC)n1` (stereo not shown) [Example 151, 5-(5-Chloro-1-methyl-6-oxo-1,6-dihydro-pyridin-3-yl)-6-(4-chloro-2-methyl-phenyl)-1-isopropyl-2-(4-methoxy-2-methylamino-pyrimidin-5-yl)-5,6-dihydro-1H-pyrrolo[3,4-b]pyrrol-4-one], 0.243 nM. For `COc1ncc(-c2cc3c(n2C(C)C)C(c2ccc(Cl)c(F)c2)N(c2cc(Cl)cn(C)c2=O)C3=O)c(OC)n1` (stereo not shown) [Example 196, 6-(4-Chloro-3-fluoro-phenyl)-5-(5-chloro-1-methyl-2-oxo-1,2-dihydro-pyridin-3-yl)-2-(2,4-dimethoxy-pyrimidin-5-yl)-1-isopropyl-5,6-dihydro-1H-pyrrolo[3,4-b]pyrrol-4-one] the value was 0.395 nM; for `COc1ccc(-c2cc3c(n2C(C)C)C(c2ccc(Cl)cc2)N(c2cc(Cl)ccc2C)C3=O)c(OC)n1` (stereo not shown) [Example 22, 5-(5-Chloro-2-methyl-phenyl)-6-(4-chloro-phenyl)-2-(2,6-dimethoxy-pyridin-3-yl)-1-isopropyl-5,6-dihydro-1H-pyrrolo[3,4-b]pyrrol-4-one], 0.323 nM; for `COc1ccccc1-c1cc2c(n1C(C)C)C(c1ccc(Cl)cc1C)N(c1cc(Cl)ccc1C)C2=O` (stereo not shown) [Example 30, 5-(5-Chloro-2-methyl-phenyl)-6-(4-chloro-2-methyl-phenyl)-1-isopropyl-2-(2-methoxy-phenyl)-5,6-dihydro-1H-pyrrolo[3,4-b]pyrrol-4-one], 0.376 nM. For `COc1nc(N(C)C)ncc1-c1cc2c(n1C(C)C)C(c1ccc(C#N)cc1)N(c1ccc(F)c(Cl)c1)C2=O` (stereo not shown) [Example 93, 4-[5-(3-Chloro-4-fluoro-phenyl)-2-(2-dimethylamino-4-methoxy-pyrimidin-5-yl)-1-isopropyl-4-oxo-1,4,5,6-tetrahydro-pyrrolo[3,4-b]pyrrol-6-yl]-benzonitrile] the value was 0.361 nM; for `COc1ccc(C#N)cc1-c1cc2c(n1C(C)C)C(c1ccc(Cl)cc1)N(C1CCOCC1)C2=O` (stereo not shown) [Example 77, 3-[6-(4-Chloro-phenyl)-1-isopropyl-4-oxo-5-(tetrahydro-pyran-4-yl)-1,4,5,6-tetrahydro-pyrrolo[3,4-b]pyrrol-2-yl]-4-methoxy-benzonitrile], 1.51 nM.

`COc1ccc(C(=O)O)cc1-c1cc2c(n1C(C)C)C(c1ccc(Cl)cc1)N(c1cc(Cl)c(=O)n(C)c1)C2=O` (stereo not drawn) [Example 50, 3-[5-(5-Chloro-1-methyl-6-oxo-1,6-dihydro-pyridin-3-yl)-6-(4-chloro-phenyl)-1-isopropyl-4-oxo-1,4,5,6-tetrahydro-pyrrolo[3,4S-b]pyrrol-2-yl]-4-methoxy-benzoic acid]: the half-maximal inhibitory concentration (IC50) worked out at 0.234 nM.

On to `COc1ncc(-c2cc3c(n2C(C)C)[C@](C)(c2ccc(Cl)cc2)N(c2cc(Cl)c(=O)n(C)c2)C3=O)c(OC)n1` [Example 162, (S)-5-(5-Chloro-1-methyl-6-oxo-1,6-dihydro-pyridin-3-yl)-6-(4-chloro-phenyl)-2-(2,4-dimethoxy-pyrimidin-5-yl)-1-isopropyl-6-methyl-5,6-dihydro-1H-pyrrolo[3,4-b]pyrrol-4-one], for which the IC50 came to 49 nM.

For orientation: IC50 means the concentration that inhibits the measured activity by half.
